The values below are quoted from earlier work in PMC4853309 (Protein expression and purification, 2015).

The data set addresses NprR. To be noted: read-out: estimated binding affinity (KD); cited from earlier work.

Take SKPDIVG [NprX7]: the Kd is roughly 50 nM.
